# Results published in patent US9284297B2, “Halofuginone analogs for inhibition of tRNA synthetases and uses thereof” (President and Fellows of Harvard College, priority 2008, dated 2016).
# Test system: TGFβ-induced Smad phosphorylation and lymphocyte responses to TGFβ
# Experiment: TGFβ signaling in T and B cells
# Assay type: cell-based, murine
# Conditions: low dose HF; 10 μM SB-431542
# Procedure: FIG. 10. […] FIG. 10A is a set of FACS analyses of CD4^+ CD25^− T cells activated in Th1 or Th2 polarizing conditions, either in the presence or absence of TGFβ. DMSO, 10 nM HF, 10 nM MAZ1310, or 10 μM SB-431542 added as indicated at the time of activation. Intracellular cytokine staining was performed on expanded T cells on day 5.
# FIG. 10D depicts western blot analyses of purified CD4^+ CD25^− T cells treated with DMSO, 40 nM MAZ1310, titrating concentrations of HF (2.5-40 nM) or 10 μM SB-431542 for 30 minutes in complete medium supplemented with 0.1% fetal calf serum. T cells were then activated in the presence or absence of 3 ng/ml TGFβ. Whole cell extracts were prepared after 1 hour of stimulation and western blot analyses were performed using the indicated antibodies.
# Th17 differentiation is synergistically regulated by TGFβ and the pro-inflammatory cytokines IL-6 and IL-21. […] Since STAT3 is the major transducer of IL-6 and IL-21 signaling, the kinetics of STAT3 phosphorylation in HF-treated T cells were examined.
# Whole cell lysates were generated from T cells activated for the indicated times. For STAT3 and Smad2/3 western blots cells were harvested, washed in PBS and lysed in 50 mM Tris, pH 7.4, 0.1% SDS, 1% Triton-X100, 140 mM NaCl, 1 mM EDTA, 1 mM EGTA supplemented with protease inhibitors tablets (Roche, Germany), 1 mM NaF and 1 mM Na3VO4. […]
smiles,measurement,value
NC(=O)c1ccc(-c2nc(-c3ccc4c(c3)OCO4)c(-c3ccccn3)[nH]2)cc1 [SB-431542],effect on TGFβ-induced Smad phosphorylation and other lymphocyte responses to TGFβ,abrogated all responses to TGFβ
